Data taken from patent US9023853B2, “Janus kinase 2 (JAK2) inhibitor for the treatment of lupus” (Cephalon, Inc., priority 2010, dated 2015).
“Also recorded” adds a separate entry of the source.

Legend:
Type in all cases: in vivo, mouse
NZM mice = test: Renal histopathology kidney IC-GN scoring in NZM mice; conditions: for D: Glomerular Sclerosis / E: Interstitial Infiltration / G: Interstitial Fibrosis / B: Glomerular Cellularity / C: Glomerular Necrosis / F: Tubular Atrophy / H: Vasculitis: NZM individual mouse; for Glomerular Cellularity / Glomerular Necrosis / Glomerulosclerosis / Interstitial Fibrosis / Interstitial Infiltration / Tubular Atrophy / Vasculitis: NZM kidney score (grade 0-5), mean; for glomerular cellularity decrease compared to vehicle: p<0.001
Experimental: For histological analyses, the left kidney and lung (NZM model only) from each animal was removed and fixed in 10% buffered neutral 10% formalin (EMD) for 48 hours on an orbital rocker at 25° C., then washed overnight with running dH2O and stored in 70% ethanol at 4° C. until ready to be processed. Kidney stains used for histological analyses included hematoxylin and eosin (H&E), Periodic Acid Schiff (PAS) and Trichrome stains (Wistar Institute, Philadelphia, Pa.). All 3 stained sections were used by the pathologist for scoring purposes. All histological scoring was performed blinded and by an independent board certified veterinary medical pathologist (Julie Engiles, VMD, DACVP; University of Pennsylvania). Multiple stains were used to determine score values. Images in FIGS. 8, 19 and 20 show worst affected area of section selected blindly by the pathologist.
Kidney IC-GN Scoring Method (Smith, Dong et al. 2007):
1. […]
2. […]
3. […]
4. […]
5. […]
6. […]
7. […]
Also considered effacement of the glomerular tuft by PAS positive, Trichrome negative material necrosis. • Glomerular sclerosis was defined by increased fibroplasia or fibrosis within the glomerular tuft or capsule. […] Pharmacodynamic (PD) Analysis
(§1) Age mated, female, NZM or NZW/LacJ, mice were matured for the study of lupus nephritis for a total of 7 months or 210 days at which time urine was collected for proteinuria detection. Mice with 0.5-1.0 mg/ml of urine protein as determined by an optical density-based total protein precipitation assay and cross-checked for 30-300 mg/dl of protein as determined by a stick assay were considered proteinuria positive and selected for study entry. Groups were normalized to contain a Gaussian distribution of proteinuria positive animals (i.e., ⅓ low proteinuria, ⅓ medium, ⅓ high) then randomized between groups before ear marking and taking baseline measures including urine and serum collections. A total of five mice from the total population were randomly selected for baseline kidney histology evaluation. Treatments and tests for each group are as described in FIG. 12. Briefly, with a minimum of 10 mice per group, COMPOUND A was administered at 100 mg/kg or 55 mg/kg, both twice a day and orally. […] Vehicle included 3% DMSO, 10% Solutol and 87% PBS. […] End-stage lupus nephritis was evaluated by histopathology and scored by a board certified pathologist for the assessment of total renal damage in diseased animals using the scoring method described by Smith et al (Smith, Dong et al. 2007). […] Day-98 or “end of treatment/study” represents 310 days of age for the NZM animals.

IFNα = test: Serum IFNα at EOS in NZM mice; conditions: EOS
Experimental: as §1

MRL/lpr mice = test: Renal histopathology kidney IC-GN scoring in MRL/lpr mice; conditions: for Glomerular Cellularity / Glomerular Necrosis / Glomerulosclerosis / Interstitial Fibrosis / Interstitial Inflitration / Tubular Atrophy / Vasculitis: MRL/lpr kidney score (grade 0-5), mean
Experimental: Kidney stains used for histological analyses included hematoxylin and eosin (H&E), Periodic Acid Schiff (PAS) and Trichrome stains (Wistar Institute, Philadelphia, Pa.). All 3 stained sections were used by the pathologist for scoring purposes. All histological scoring was performed blinded and by an independent board certified veterinary medical pathologist (Julie […]; University of Pennsylvania). Multiple stains were used to determine score values. Images in FIGS. 8, 19 and 20 show worst affected area of section selected blindly by the pathologist. Kidney IC-GN Scoring Method (Smith, Dong et al. 2007): 1. Glomerular cellularity-Score 1-5: Null, low, moderate, high, severe […] Glomerular necrosis-Score 1-5: Null, low, moderate, high, severe […] Glomerulosclerosis-Score 1-5: Null, low, moderate, high, severe […] Null, low, moderate, high, severe 5. […] Null, low, moderate, high, severe 6. […] Null, low, moderate, high, severe 7. […] Null, low, moderate, high, severe Specific Pathologist Definitions: • Necrosis was defined by the presence of nuclear debris/pyknosis within the glomerular tuft indicative of “necrosis.” In many samples, this was a very mild, rare finding within only a very few segments of the glomerular tuft. Also considered effacement of the glomerular tuft by PAS positive, Trichrome negative material necrosis. • Glomerular sclerosis was defined by increased fibroplasia or fibrosis within the glomerular tuft or capsule. […] Most of the vascular changes were mild and could be considered “arteriosclerosis” characterized by proliferation of the smooth muscle cells, and hyalinization of the extracellular matrix. This change may reflect hypertension secondary to glomerular pathology. In very few animals was there overt “vasculitis.” Most inflammatory changes were within the walls of the blood vessels, with little to no damage to the endothelium, and no overt hemorrhage/fibrin leakage. Many also have perivascular rims of fibroblasts. […] Mice were tracked on an individual basis.

[1] = NZM mice, sentence names 55 mg/kg and 100 mg/kg doses, p<0.05
[2] = MRL/lpr mice, 100 mg/kg, p<0.01

CN1CCN(c2cccc(Nc3nc4c(-c5ccc(S(C)(=O)=O)cc5)cccn4n3)c2)CC1 [COMPOUND A, [8-(4-methanesulfonyl-phenyl)-[1,2,4]triazolo[1,5-a]pyridin-2-yl]-[3-(4-methyl-piperazin-1-yl)-phenyl]-amine]
D: Glomerular Sclerosis (NZM mice; CMPD A 55 mpk bid): − (‘−’ no disease (1)) | E: Interstitial Infiltration (NZM mice; CMPD A 55 mpk bid): − (‘−’ no disease (1)) | G: Interstitial Fibrosis (NZM mice; CMPD A 55 mpk bid): − (‘−’ no disease (1)) | B: Glomerular Cellularity (NZM mice; CMPD A 55 mpk bid, 55 mg/kg): + (‘+’ mild (2)); also recorded: − (‘−’ no disease (1)) | C: Glomerular Necrosis (NZM mice; CMPD A 55 mpk bid, 55 mg/kg): − (‘−’ no disease (1)); also recorded: + (‘+’ mild (2)) | F: Tubular Atrophy (NZM mice; CMPD A 55 mpk bid, 55 mg/kg): + (‘+’ mild (2)); also recorded: − (‘−’ no disease (1)) | H: Vasculitis (NZM mice; CMPD A 55 mpk bid, 55 mg/kg): − (‘−’ no disease (1)); also recorded: + (‘+’ mild (2)) | B: Glomerular Cellularity (NZM mice; CMPD A 100 mpk bid, 100 mg/kg): − (‘−’ no disease (1)); also recorded: + (‘+’ mild (2)) | C: Glomerular Necrosis (NZM mice; CMPD A 100 mpk bid, 100 mg/kg): − (‘−’ no disease (1)); also recorded: + (‘+’ mild (2)); also recorded: ++ (‘++’ moderate (3)) | D: Glomerular Sclerosis (NZM mice; CMPD A 100 mpk bid, 100 mg/kg): − (‘−’ no disease (1)); also recorded: ++ (‘++’ moderate (3)) | E: Interstitial Infiltration (NZM mice; CMPD A 100 mpk bid, 100 mg/kg): − (‘−’ no disease (1)); also recorded: + (‘+’ mild (2)) | F: Tubular Atrophy (NZM mice; CMPD A 100 mpk bid, 100 mg/kg): − (‘−’ no disease (1)); also recorded: + (‘+’ mild (2)) | G: Interstitial Fibrosis (NZM mice; CMPD A 100 mpk bid, 100 mg/kg): − (‘−’ no disease (1)); also recorded: + (‘+’ mild (2)) | H: Vasculitis (NZM mice; CMPD A 100 mpk bid, 100 mg/kg): − (‘−’ no disease (1)); also recorded: + (‘+’ mild (2)) | Glomerular Cellularity (NZM mice; COMPOUND A 55 mg/kg): 1.33 | Glomerular Necrosis (NZM mice; COMPOUND A 55 mg/kg): 1.22 | Glomerulosclerosis (NZM mice; COMPOUND A 55 mg/kg): 1.00 | Interstitial Fibrosis (NZM mice; COMPOUND A 55 mg/kg): 1.0 | Interstitial Infiltration (NZM mice; COMPOUND A 55 mg/kg): 1.11 | Tubular Atrophy (NZM mice; COMPOUND A 55 mg/kg): 1.22 | Vasculitis (NZM mice; COMPOUND A 55 mg/kg): 1.11 | Glomerular Cellularity (NZM mice; COMPOUND A 100 mg/kg): 1.44 | Glomerular Necrosis (NZM mice; COMPOUND A 100 mg/kg): 1.44 | Glomerulosclerosis (NZM mice; COMPOUND A 100 mg/kg): 1.22 | Interstitial Fibrosis (NZM mice; COMPOUND A 100 mg/kg): 1.22 | Interstitial Infiltration (NZM mice; COMPOUND A 100 mg/kg): 1.22 | Tubular Atrophy (NZM mice; COMPOUND A 100 mg/kg): 1.33 | Vasculitis (NZM mice; COMPOUND A 100 mg/kg): 1.44 | enlarged glomeruli and leukocytic infiltrates in renal sections (NZM mice; NZM mice treated with COMPOUND A, FIG. 19): absent | glomerular cellularity decrease compared to vehicle (NZM mice; NZM mice, COMPOUND A 55 mg/kg): 59.3% | glomerular cellularity decrease compared to vehicle (NZM mice; NZM mice, COMPOUND A 100 mg/kg): 56.2% | renal pathologies (NZM mice; NZM mice, comparable to non-diseased NZW/LacJ age-matched control, FIG. 19): decreased renal pathologies | interstitial fibrosis decrease compared to vehicle (NZM mice; [1]): 58.3% | vasculitis decrease compared to vehicle (NZM mice; [1]): 8.3% | serum IFNα decrease compared to vehicle (IFNα; COMPOUND A 55 mg/kg): 70.2% | serum IFNα decrease compared to vehicle (IFNα; COMPOUND A 100 mg/kg): 73.2% | Glomerular Cellularity (MRL/lpr mice; COMPOUND A 30 mg/kg): 2.60 | Glomerular Necrosis (MRL/lpr mice; COMPOUND A 30 mg/kg): 1.80 | Glomerulosclerosis (MRL/lpr mice; COMPOUND A 30 mg/kg): 1.60 | Interstitial Fibrosis (MRL/lpr mice; COMPOUND A 30 mg/kg): 1.60 | Interstitial Inflitration (MRL/lpr mice; COMPOUND A 30 mg/kg): 2.20 | Tubular Atrophy (MRL/lpr mice; COMPOUND A 30 mg/kg): 1.20 | Vasculitis (MRL/lpr mice; COMPOUND A 30 mg/kg): 1.80 | Glomerular Cellularity (MRL/lpr mice; COMPOUND A 55 mg/kg): 3.20 | Glomerular Necrosis (MRL/lpr mice; COMPOUND A 55 mg/kg): 1.80 | Glomerulosclerosis (MRL/lpr mice; COMPOUND A 55 mg/kg): 2.00 | Interstitial Fibrosis (MRL/lpr mice; COMPOUND A 55 mg/kg): 1.20 | Interstitial Inflitration (MRL/lpr mice; COMPOUND A 55 mg/kg): 2.00 | Tubular Atrophy (MRL/lpr mice; COMPOUND A 55 mg/kg): 2.20 | Vasculitis (MRL/lpr mice; COMPOUND A 55 mg/kg): 2.00 | Glomerular Cellularity (MRL/lpr mice; COMPOUND A 100 mg/kg): 2.40 | Glomerular Necrosis (MRL/lpr mice; COMPOUND A 100 mg/kg): 1.8 | Glomerulosclerosis (MRL/lpr mice; COMPOUND A 100 mg/kg): 2.20 | Interstitial Fibrosis (MRL/lpr mice; COMPOUND A 100 mg/kg): 1.40 | Interstitial Inflitration (MRL/lpr mice; COMPOUND A 100 mg/kg): 1.80 | Tubular Atrophy (MRL/lpr mice; COMPOUND A 100 mg/kg): 1.40 | Vasculitis (MRL/lpr mice; COMPOUND A 100 mg/kg): 1.40 | interstitial infiltration decrease vs vehicle (MRL/lpr mice; MRL/lpr mice, 55 mg/kg, p<0.05): 33.3% | glomerular cellularity decrease vs vehicle (MRL/lpr mice; [2]): 33.3% | interstitial infiltration decrease vs vehicle (MRL/lpr mice; [2]): 40% | vasculitis decrease vs vehicle (MRL/lpr mice; [2]): 46.1% | enlarged glomeruli and leukocytic infiltrations in renal sections (MRL/lpr mice; MRL/lpr mice, COMPOUND A treated animals at EOS, FIG. 8): absent | cellular infiltrations/glomerulonephritis and glomerular size in H&E stained renal sections (MRL/lpr mice; MRL/lpr mice, compared to dexamethasone and vehicle groups, FIG. 8): decreases in both cellular infiltrations/glomerulonephritis and glomerular size
